Like-named read-outs stand apart in the source and are kept apart here.
Key:
[1] = cited from earlier work

C=CC(=O)N1CCC([C@@H]2CCNc3c(C(N)=O)c(-c4ccc(Oc5ccccc5)cc4)nn32)CC1 [zanubrutinib, (S)-7-(1-acryloylpiperidin-4-yl)-2-(4-phenoxyphenyl)-4,5,6,7-tetrahydropyrazolo[1,5-a]pyrimidine-3-carboxamide]
Grade ≥3 AE (160 mg bid group): 28.6% | Neutropenia (160 mg bid group): 19.0% | Patients with ≥1 AE (160 mg bid group): 95.2% | SAE (160 mg bid group): 9.5% | Treatment discontinuation due to AEs (160 mg bid group): 4.8% | Grade ≥3 AE (320 mg qd group): 32.0% | Neutropenia (320 mg qd group): 8.0% | Patients with ≥1 AE (320 mg qd group): 96% | SAE (320 mg qd group): 16.0% | Treatment discontinuation due to AEs (320 mg qd group): 12.0% | Arthralgia (67 patients): 13.4% | Contusion (67 patients): 22.4% | Death (COVID-19 pneumonia) (67 patients): 1.5% | Diarrhoea (67 patients): 13.4% | Epistaxis (67 patients): 7.5% | Fatigue (67 patients): 20.9% | Grade ≥3 AEs (67 patients): 29.9% | Hypertension (67 patients): 11.9% | Myalgia (67 patients): 14.9% | Neutropenia or neutrophil count decreased, grade ≥3 (67 patients): 11.9% | Patients with ≥1 AE (67 patients): 95.5% | Petechiae (67 patients): 7.5% | Serious AEs (67 patients): 11.9% | Syncope, grade ≥3 (67 patients): 3.0% | Atrial fibrillation (67 patients, all grade 2): 4.5% | Patients who discontinued zanubrutinib (Cohort 1): 15.8% | Patients who discontinued zanubrutinib due to AEs (Cohort 1): 7.0% | Patients who discontinued zanubrutinib (Cohort 2): 20.0% | Arthralgia (Grade 1): 4 (6.0) n (%) | Back pain (Grade 1): 2 (3.0) n (%) | Bronchitis (Grade 1): 0 (0.0) n (%) | Cellulitis (Grade 1): 0 (0.0) n (%) | Constipation (Grade 1): 3 (4.5) n (%) | Contusion (Grade 1): 12 (17.9) n (%) | Cough (Grade 1): 4 (6.0) n (%) | Diarrhoea (Grade 1): 6 (9.0) n (%) | Dizziness (Grade 1): 3 (4.5) n (%) | Epistaxis (Grade 1): 4 (6.0) n (%) | Fatigue (Grade 1): 8 (11.9) n (%) | Headache (Grade 1): 4 (6.0) n (%) | Hypertension (Grade 1): 0 (0.0) n (%) | Insomnia (Grade 1): 3 (4.5) n (%) | Muscle spasms (Grade 1): 4 (6.0) n (%) | Myalgia (Grade 1): 8 (11.9) n (%) | Nausea (Grade 1): 6 (9.0) n (%) | Neutropenia (Grade 1): 0 (0.0) n (%) | Neutrophil count decrease (Grade 1): 0 (0.0) n (%) | Pain in extremity (Grade 1): 3 (4.5) n (%) | Petechiae (Grade 1): 5 (7.5) n (%) | Pruritus (Grade 1): 3 (4.5) n (%) | Rash (Grade 1): 5 (7.5) n (%) | Seborrheic keratosis (Grade 1): 3 (4.5) n (%) | Skin laceration (Grade 1): 2 (3.0) n (%) | Upper respiratory tract infection (Grade 1): 3 (4.5) n (%) | Urinary tract infection (Grade 1): 1 (1.5) n (%) | Arthralgia (Grade 2): 5 (7.5) n (%) | Back pain (Grade 2): 2 (3.0) n (%) | Bronchitis (Grade 2): 3 (4.5) n (%) | Cellulitis (Grade 2): 3 (4.5) n (%) | Constipation (Grade 2): 1 (1.5) n (%) | Contusion (Grade 2): 3 (4.5) n (%) | Cough (Grade 2): 1 (1.5) n (%) | Diarrhoea (Grade 2): 2 (3.0) n (%) | Dizziness (Grade 2): 4 (6.0) n (%) | Epistaxis (Grade 2): 1 (1.5) n (%) | Fatigue (Grade 2): 6 (9.0) n (%) | Headache (Grade 2): 0 (0.0) n (%) | Hypertension (Grade 2): 7 (10.4) n (%) | Insomnia (Grade 2): 2 (3.0) n (%) | Muscle spasms (Grade 2): 1 (1.5) n (%) | Myalgia (Grade 2): 2 (3.0) n (%) | Nausea (Grade 2): 1 (1.5) n (%) | Neutropenia (Grade 2): 0 (0.0) n (%) | Neutrophil count decrease (Grade 2): 2 (3.0) n (%) | Pain in extremity (Grade 2): 3 (4.5) n (%) | Petechiae (Grade 2): 0 (0.0) n (%) | Pruritus (Grade 2): 1 (1.5) n (%) | Rash (Grade 2): 0 (0.0) n (%) | Seborrheic keratosis (Grade 2): 1 (1.5) n (%) | Skin laceration (Grade 2): 2 (3.0) n (%) | Upper respiratory tract infection (Grade 2): 1 (1.5) n (%) | Urinary tract infection (Grade 2): 4 (6.0) n (%) | Arthralgia (Grade 3): 0 (0.0) n (%) | Back pain (Grade 3): 0 (0.0) n (%) | Bronchitis (Grade 3): 1 (1.5) n (%) | Cellulitis (Grade 3): 1 (1.5) n (%) | Constipation (Grade 3): 0 (0.0) n (%) | Contusion (Grade 3): 0 (0.0) n (%) | Cough (Grade 3): 0 (0.0) n (%) | Diarrhoea (Grade 3): 1 (1.5) n (%) | Dizziness (Grade 3): 0 (0.0) n (%) | Epistaxis (Grade 3): 0 (0.0) n (%) | Fatigue (Grade 3): 0 (0.0) n (%) | Headache (Grade 3): 0 (0.0) n (%) | Hypertension (Grade 3): 1 (1.5) n (%) | Insomnia (Grade 3): 0 (0.0) n (%) | Muscle spasms (Grade 3): 0 (0.0) n (%) | Myalgia (Grade 3): 0 (0.0) n (%) | Nausea (Grade 3): 0 (0.0) n (%) | Neutropenia (Grade 3): 5 (7.5) n (%) | Neutrophil count decrease (Grade 3): 2 (3.0) n (%) | Pain in extremity (Grade 3): 0 (0.0) n (%) | Petechiae (Grade 3): 0 (0.0) n (%) | Pruritus (Grade 3): 0 (0.0) n (%) | Rash (Grade 3): 0 (0.0) n (%) | Seborrheic keratosis (Grade 3): 0 (0.0) n (%) | Skin laceration (Grade 3): 0 (0.0) n (%) | Upper respiratory tract infection (Grade 3): 0 (0.0) n (%) | Urinary tract infection (Grade 3): 0 (0.0) n (%) | Arthralgia (Grade 4): 0 (0.0) n (%) | Back pain (Grade 4): 0 (0.0) n (%) | Bronchitis (Grade 4): 0 (0.0) n (%) | Cellulitis (Grade 4): 0 (0.0) n (%) | Constipation (Grade 4): 0 (0.0) n (%) | Contusion (Grade 4): 0 (0.0) n (%) | Cough (Grade 4): 0 (0.0) n (%) | Diarrhoea (Grade 4): 0 (0.0) n (%) | Dizziness (Grade 4): 0 (0.0) n (%) | Epistaxis (Grade 4): 0 (0.0) n (%) | Fatigue (Grade 4): 0 (0.0) n (%) | Headache (Grade 4): 0 (0.0) n (%) | Hypertension (Grade 4): 0 (0.0) n (%) | Insomnia (Grade 4): 0 (0.0) n (%) | Muscle spasms (Grade 4): 0 (0.0) n (%) | Myalgia (Grade 4): 0 (0.0) n (%) | Nausea (Grade 4): 0 (0.0) n (%) | Neutropenia (Grade 4): 0 (0.0) n (%) | Neutrophil count decrease (Grade 4): 1 (1.5) n (%) | Pain in extremity (Grade 4): 0 (0.0) n (%) | Petechiae (Grade 4): 0 (0.0) n (%) | Pruritus (Grade 4): 0 (0.0) n (%) | Rash (Grade 4): 0 (0.0) n (%) | Seborrheic keratosis (Grade 4): 0 (0.0) n (%) | Skin laceration (Grade 4): 0 (0.0) n (%) | Upper respiratory tract infection (Grade 4): 0 (0.0) n (%) | Urinary tract infection (Grade 4): 0 (0.0) n (%) | Serious atrial fibrillation (Safety Analysis Set, 72 patients): 2.8% | Arthralgia (Total): 9 (13.4) n (%) | Back pain (Total): 4 (6.0) n (%) | Bronchitis (Total): 4 (6.0) n (%) | Cellulitis (Total): 4 (6.0) n (%) | Constipation (Total): 4 (6.0) n (%) | Contusion (Total): 15 (22.4) n (%) | Cough (Total): 5 (7.5) n (%) | Diarrhoea (Total): 9 (13.4) n (%) | Dizziness (Total): 7 (10.4) n (%) | Epistaxis (Total): 5 (7.5) n (%) | Fatigue (Total): 14 (20.9) n (%) | Headache (Total): 4 (6.0) n (%) | Hypertension (Total): 8 (11.9) n (%) | Insomnia (Total): 5 (7.5) n (%) | Muscle spasms (Total): 5 (7.5) n (%) | Myalgia (Total): 10 (14.9) n (%) | Nausea (Total): 7 (10.4) n (%) | Neutropenia (Total): 5 (7.5) n (%) | Neutrophil count decrease (Total): 5 (7.5) n (%) | Pain in extremity (Total): 6 (9.0) n (%) | Petechiae (Total): 5 (7.5) n (%) | Pruritus (Total): 4 (6.0) n (%) | Rash (Total): 5 (7.5) n (%) | Seborrheic keratosis (Total): 4 (6.0) n (%) | Skin laceration (Total): 4 (6.0) n (%) | Upper respiratory tract infection (Total): 4 (6.0) n (%) | Urinary tract infection (Total): 5 (7.5) n (%) | Bleeding events (in vivo): 25 patients | Median time to onset of first hypertensive event (in vivo): 105 days | Patients requiring dose reductions (in vivo): 9.0% | Rate of zanubrutinib discontinuation due to AEs (in vivo): < 10% | Median Tmax ([1]; oral administration): 2 h | Mean terminal elimination half-life (t1/2) ([1]; patients with B-cell malignancies): 2 to 4 h | Mean t1/2 ([1]; previous clinical DDI study in healthy volunteers): 6.8 h
